Measurements taken from patent US20030077573A1, “Methods of identifying compounds useful in the inhibition of neurodegenerative disease” (priority 1999, published 2003).
Bridge positions count the residues as written; N and C are the ends. Ends that are not written are not given here.

Experiments:
rat aortic rings [1] = assay: quantification of cGMP and cAMP levels in rat aortae (EIA)
Experimental: Aortic rings are equilibrated in Kreb's buffer for 2 hours and then constricted with a serial dose range of ET-1 (from 1 nM to 5 nM) in the presence or absence of 1 μM of Aβ. Immediately following maximum vasoconstriction (or, in the case of control rings, after 2 hours of equilibration in Kreb's buffer), aortae are frozen in liquid nitrogen. Vessels are then homogenized in 10% trichloracetic acid (TCA) diluted in PBS (at 4° C.) and centrifuged to pellet TCA precipitated proteins. Supernatants are collected and TCA is then removed from samples by three extractions with diethyl ether saturated in deionized water. Residual ether is removed from the sample by heating samples to 70° C. for 10 minutes. Both cGMP and cAMP levels are quantified using competitive binding EIAs (Alexis Biochemicals, San Diego, Calif.) according to the manufacturer's instruction.

[2] = test system: murine microglial cell line (N9); assay: LTB4 release from N9 microglial cells; assay type: cell-based; settings: 18 hours; for effect on Aβ-induced microglial LTB4 release: Aβ1-40 500 nM + drug (dipyridamole 10 μM)
Experimental: The murine microglial cell line (N9) is kindly provided by Dr. Paola Ricciardi-Castagnoli (Cellular Pharmacology Center, Milan, Italy) and cells are grown in RPMI 1640 medium supplemented with 5% fetal calf serum, 2 mM glutamine, 100 U/mL penicillin, 0.1 μg/mL streptomycin and 0.05 mM 2-mercaptoethanol. Microglial cells are seeded at 50,000 cells/well in 6-well plates (Falcon, France) and treated with Aβ1-40 (500 nM), dipyridamole (10 μM) or untreated (control) and incubated for 18 hours. Cell supernatants are then collected and immediately frozen at −80° C.
Cell supernatants (50 μL) are used in the LTB4 assay, and each sample is assayed in duplicate. Manipulations are performed in accordance with the manufacturer's instruction. A spectramax 250 spectrophotometer (Molecular Devices, San Diego, USA) is used to measure absorbance at 405 nm and a standard curve is plotted using a 4-parameter model. Cell extracts for protein determination are obtained by lysing microglial cells in 110 μL of ice cold lysis buffer ([…] pH 7.5, 150 mM NaCl, 1 mM EDTA, 1 mM EGTA, 1% Triton X-100, 2.5 mM sodium pyrophosphate, 1 mM β-Glycerophosphate, 1 mM Na3VO4, 1 μg/ml leupeptin and 1 mM phenylmethylsulfonyl fluoride). Protein concentrations are determined for each sample using the Biorad reagent according to the manufacturer's instruction. LTB4 data are thus expressed as pg LTB4 /mg cellular protein.

[3] = test system: N9 murine microglial cell line; assay: LPS-induced TNF-α release from N9 microglia; assay type: cell-based
rat aortic rings [4] = assay: vasorelaxation assay, phenylephrine-constricted rat aortic rings; settings: for effect on the relaxation induced by SNP: vessels constricted with 3.5 nM PE, SNP 0.1, 1, 2 μM, Aβ1-40 1 μM or ODQ 10 μM
Experimental: (§1) Vasoactivity is measured in rat aortic rings using the system previously described, for example by Crawford, F., et al., The vasoactivity of Aβ peptides, Ann. N. Y. Acad. Sci. 826:3546, (1997); Crawford, F., et al., Characteristics of the in vitro vasoactivity of beta-amyloid peptides, Exp. Neurol. 150:159-168 (1998); Paris, D., et al., Isoform-specific vasoconstriction induced by Apolipoprotein E and modulation of this effect by Alzheimer's β-amyloid peptide. Neurosci. Lett. 256:73-76, (1998); Paris, D., et al., Role of peroxynitrite in the vasoactive and cytotoxic properties of Alzheimer's β-amyloid1-40 peptide, Exp. Neurol. 152:116-122 (1998); and Thomas, T. N., et al., Vasoactive effects and free radical generation by β-amyloid peptides. U.S. Pat. No. 6,011,019. Jan. 4, 2000. Normal male Sprague-Dawley rats (7-8 months old) are sacrificed, and freshly dissected rat aortae are segmented into 3 mm rings and suspended in Kreb's buffer on hooks. These hooks are connected to an isometric transducer linked to a MacLab system. Aortic rings are equilibrated in the tissue bath system for two hours with the Kreb's buffer changed every 30 min.
For the vasorelaxation assay, constricted aortic rings are pre-treated for 5 minutes with 1 μM of Aβ with a single dose of phenylephrine (3.5×10^−9 M) along with untreated controls. After waiting for stabilization of vasotension, aortic segments are subjected to a range of SNP doses. Aortic rings pre-constricted with a single dose of phenylephrine (3.5×10^−9 M) are treated with 10 μM ODQ 5 minutes prior to the addition of several doses of SNP. The effect of 10 μM of dipyridamole is also investigated on vessels pre-constricted with 3.5×10^−9 M of phenylephrine. Data are standardized such that the maximum PE-induced constriction is fixed at 100%.

rat aortic rings [5] = assay: vasoconstriction assay, ET-1-induced constriction of rat aortic rings; settings: ET-1 1-5 nM, ODQ 10 μM, YC-1 5 μM, L-NAME 100 μM, dipyridamole 10 μM; for effect on Aβ-enhancement of ET-1-induced vasoconstriction (agent + Aβ): 1 μM Aβ1-40, ANOVA interaction; for effect on ET-1-induced vasoconstriction (agent alone): Aβ1-40 1 μM
Experimental: as §1
For the vasoconstriction assay, the first group of aortic rings are pre-treated with 10 μM ODQ 2 minutes prior to the addition of 1 μM of Aβ1-40. After 5 minutes of incubation with Aβ, the vessels are then subjected to a dose range of ET-1 (from 1 nM to 5 nM). The second set of vessels are treated with Aβ prior to the addition of ET-1. A third set received ODQ treatment followed by ET-1, and the fourth group (control) only received ET-1 treatment. A similar protocol is applied with dipyridamole (10 μM), and YC-1 (5 μM). In all cases the percentage contraction as compared to baseline is determined for each dose of ET-1 used. The means and standard errors (SEs) of all such values are calculated.

[6] = ET-1 1-5 nM vs untreated control

ET-1: Endothelin-1, one of the most potent cerebrovascular vasoconstrictors (CSCSSLMDKECVYFCHLDIIW; disulfide 1-15, 3-11; ends not checked; UniProt P05305 53-73, looked up)
cAMP levels in rat aortic rings (rat aortic rings [1]; [6]): increase
cGMP levels in rat aortic rings (rat aortic rings [1]; [6]): increase

Nc1nc2c(nc(Br)n2[C@@H]2O[C@@H]3COP(=O)(O)O[C@H]3[C@H]2O)c(=O)[nH]1 [8-Br cGMP, 8-bromo cGMP]
effect on Aβ-induced microglial LTB4 release [2]: completely block Aβ-induced microglial LTB4 release
effect on LPS-induced microglial TNF-α release ([3]; 8-Br cGMP 1 μM, data not shown): partially inhibit LPS-induced microglial TNF-α release
effect on LPS-induced microglial TNF-α release ([3]; 8-Br cGMP 5 μM, LPS 2.5 ng/mL, 18 h): completely inhibit LPS-induced microglial TNF-α release

O=c1onc2cnc3ccccc3n12 [ODQ, 1H-[1,2,4]oxadiazolo[4,3,-α]quinoxalin-1-one]
effect on the relaxation induced by SNP (rat aortic rings [4]): blocks the relaxation induced by this NO donor
effect on Aβ-enhancement of ET-1-induced vasoconstriction (agent + Aβ) (rat aortic rings [5]): constriction which is only additive
effect on ET-1-induced vasoconstriction (agent alone) (rat aortic rings [5]): Neither ODQ or Aβ alone are able to potentiate vasoconstriction induced by ET-1

COC(=O)[C@@H](N)CCCNC(=N)N[N+](=O)[O-] [L-NAME, N-ω-nitro-L-arginine methyl ester]
effect on Aβ-enhancement of ET-1-induced vasoconstriction (agent + Aβ) (rat aortic rings [5]): no statistical interaction is observed
effect on ET-1-induced vasoconstriction (agent alone) (rat aortic rings [5]): does not significantly increase ET-1-induced vasoconstriction

Aβ1-40: freshly solubilized β-amyloid peptide Aβ1-40, supplied by QCB
effect on the relaxation induced by SNP (rat aortic rings [4]): relaxation induced by SNP, an NO-donor, is reduced
cAMP levels in rat aortic rings (rat aortic rings [1]; 1 μM Aβ + ET-1 vs ET-1 alone): not able to modulate cAMP levels
cGMP levels in rat aortic rings (rat aortic rings [1]; 1 μM Aβ + ET-1 vs ET-1 alone): significantly lower compared to ET-1 treatment alone
microglial LTB4 release ([2]; Aβ1-40 500 nM, vs untreated cells): significant LTB4 release

OCCN(CCO)c1nc(N2CCCCC2)c2nc(N(CCO)CCO)nc(N3CCCCC3)c2n1 [dipyridamole]
relaxation of aortic rings constricted with phenylephrine (rat aortic rings [4]; 10 μM dipyridamole, 3.5 nM PE): induced potent relaxation
effect on Aβ opposition to relaxation (rat aortic rings [4]; 10 μM dipyridamole, Aβ-treated vs control vessels, PE-constricted): blocks the opposition to relaxation normally induced by Aβ
relaxant effect on quiescent rings (rat aortic rings [4]; 10 μM dipyridamole, data not shown): no significant relaxant effect
effect on Aβ-enhancement of ET-1-induced vasoconstriction (agent + Aβ) (rat aortic rings [5]): blocks Aβ-induced vasoconstriction in a statistically interactive manner
effect on ET-1-induced vasoconstriction (agent alone) (rat aortic rings [5]): opposes ET-1-induced vasoconstriction in an ET-1 dose-dependent manner
effect on Aβ-induced microglial LTB4 release [2]: completely prevents the increased LTB4 production induced by Aβ
effect on LPS-induced microglial activation (TNF-α release) ([3]; LPS 2.5 ng/mL, 18 h, dipyridamole 10 μM, SNP 10 μM, YC-1 10 μM): markedly reduce microglial activation induced by LPS
